Like-named read-outs stand apart in the source and are kept apart here.
Tested on: HEK-Blue IL-17 cells with rhIL-17A/A
Experiment: HEK-Blue IL-17 cell assay (SEAP reporter, rhIL-17A/A stimulation)
Assay type: cell-based, human
Settings: 20 hours incubation, absorbance at 405 nm, read-out: IC50 in HEK-Bule cell Assay
Experimental: • 1. The test Compounds were 3-fold serial diluted from 10 mM for 10 doses in DMSO. • 2. Prepare Reference Compounds (IL-17A-Inhibitor-1) were 3-fold serial diluted from 1 mM for 10 doses in DMSO. • 3. Prepare 1000× Positive control (1 mM IL-17A-Inhibitor-1) and 1000× vehicle control (100% DMSO).
• a) Cells were cultured as the HEK-Blue™ IL-17 technical data sheet recommended. HEK-Blue IL-17 cells were assayed in the exponential growth phase. • b) Aspirate growth medium and rinse cells twice with PBS to remove phenol red. • c) Resuspend cells in test medium to a proper concentration. • d) Only cells with viability greater than 90% were used for assays. • e) Transfer 25 nl of compound dilutions into 384-well assay plates using Echo655; • f) Seed 25 ul of HEK-Blue IL-17 cells at 8,000 cells/well into 384-well plate with rhIL-17A/A. • g) Cells were incubated for 20 hours at 37° C. under 5% CO2 atmosphere. • h) Transfer 2 ul of cells supernatant into per well of 384-well assay plates. • i) Add 20 ul of PNPP substrate. • j) Measure the Absorbance at 405 nm on Envision 2105 plate reader.
RLU signal (LUMcmpd) is calculated for each well.
% Inhibition is calculated as follow: […]
Signalave_pc: The average signal for the positive controls across the plate.
Signalave_vc: The average signal for negative controls across the plate.
Calculate IC50 and Plot effect-dose curve of cmpds:
Calculate IC50 by fitting % Inhibition values and log of compound concentrations to nonlinear regression (dose response−variable slope) with Graphpad 8.0.

| SMILES | IC50 (Homo sapiens, HEK-Blue, 20 h) [nM] | IC50 [nM] |
| --- | --- | --- |
| CC(C)n1nccc1C(=O)N[C@H](C(=O)Nc1ccc2c(c1)OCC[C@H]2NC(=O)CCC(F)(F)F)C1CCCCCC1 [Compound 1] | 209 | – |
| CC(C)n1nccc1C(=O)N[C@H](C(=O)Nc1ccc2c(c1)OCC[C@H]2NS(=O)(=O)CCC(F)(F)F)C1CCCCCC1 [Compound 5] | 333 | – |
| CC(C)n1nccc1C(=O)N[C@H](C(=O)Nc1ccc2c(c1)OCC(C)(C)[C@H]2NC(=O)CCC(F)(F)F)C1CCCCCC1 [Compound 12] | 317 | – |
| CC(C)n1nccc1C(=O)N[C@H](C(=O)Nc1ccc2c(c1)OC(C)(C)C[C@H]2NC(=O)CCC(F)(F)F)C1CCCCCC1 [Compound 13] | 239 | – |
| CC(C)n1nccc1C(=O)N[C@H](C(=O)Nc1ccc2c(c1)OCC[C@H]2C(=O)N1CC(F)(F)C(F)(F)C1)C1CCCCCC1 [Compound 36] | 154 | – |
| CCC1(CC)CC(C(=O)N2CC(F)(F)C2)c2ccc(NC(=O)[C@@H](NC(=O)c3ccnn3C(C)C)C3CCCCCC3)cc2O1 (stereo partly shown) [Compound 108] | 102 | – |
| CC(C)n1nccc1C(=O)N[C@H](C(=O)Nc1ccc2c(c1)O[C@@H](C1CC(F)(F)C1)C[C@H]2C(=O)N1CC(F)(F)C1)C1CCCCCC1 [Compound 135] | 18.9 | – |
| CC(C)n1nccc1C(=O)N[C@H](C(=O)Nc1ccc2c(c1)O[C@H](C1CC(F)(F)C1)C[C@H]2C(=O)N1CC(F)(F)C1)C1CCCCCC1 [Compound 136] | 49 | – |
| CC(C)n1nccc1C(=O)N[C@H](C(=O)Nc1ccc2c(c1)OC1(CCOCC1)C[C@H]2C(=O)N1CC(F)(F)C1)C1CCCCCC1 [Compound 152] | 7.49 | – |
| CC(C)n1nccc1C(=O)N[C@H](C(=O)Nc1ccc2c(c1)O[C@@H](C1CC(F)(F)C1)C[C@H]2C(=O)N1CC(F)(F)C1)C(C1CC1)C1CC1 [Compound 160] | 42.1 | – |
| CC(C)n1nccc1C(=O)N[C@H](C(=O)Nc1ccc2c(c1)OC1(CCOCC1)C[C@H]2C(=O)N1CC(F)(F)C1)C(C1CC1)C1CC1 [Compound 162] | 35.7 | – |
| CC(C)C1CC(C(=O)N2CC(C(F)(F)F)C2)c2ccc(NC(=O)[C@@H](NC(=O)c3ccnn3C(C)C)C3CCCCCC3)cc2O1 (stereo partly shown) [Compound 164] | 72.6 | – |
| CC(C)C1CC(C(=O)N2CC3(C2)CC(F)(F)C3)c2ccc(NC(=O)[C@@H](NC(=O)c3ccnn3C(C)C)C3CCCCCC3)cc2O1 (stereo partly shown) [Compound 165] | 127 | – |
| CC(C)n1nccc1C(=O)N[C@H](C(=O)Nc1ccc2c(c1)OC(C)(C)CN2C(=O)N1CC(F)(F)C1)C1CCCCCC1 [Compound 166] | 54.5 | – |
| CC(C)C1CN(C(=O)N2CC(F)(F)C2)c2ccc(NC(=O)[C@@H](NC(=O)c3ccnn3C(C)C)C3CCCCCC3)cc2O1 (stereo partly shown) [Compound 167] | 30.4 | – |
| CC(C)n1nccc1C(=O)N[C@H](C(=O)Nc1ccc2c(c1)OC1(CCOCC1)CN2C(=O)N1CC(F)(F)C1)C1CCCCCC1 [Compound 169] | 18.2 | – |
| O=C(N[C@H](C(=O)Nc1ccc2c(c1)OC(C1CC(F)(F)C1)CC2C(=O)N1CC(C(F)(F)F)C1)C1CCCCCC1)OCC1CC1(F)F (stereo partly drawn) [Compound 189, (2,2-difluorocyclopropyl)methyl N—[(S)-cycloheptyl[(2-(3,3-difluorocyclobutyl)-4-(3-(trifluoromethyl)azetidine-1-carbonyl)-3,4-dihydro-2H-1-benzopyran-7-yl)carbamoyl]methyl]carbamate] | 226 | – |
| O=C(N[C@H](C(=O)Nc1ccc2c(c1)OC1(CCOCC1)CC2C(=O)N1CC(F)(F)C1)C1CCCCCC1)OC[C@@H]1CC1(F)F (stereo partly shown) [Compound 190] | 367 | – |
| O=C(N[C@H](C(=O)Nc1ccc2c(c1)OC(C1CC(F)(F)C1)CC2C(=O)N1CC(F)(F)C1)C1CCCCCC1)OCc1cc(C(F)F)on1 (stereo partly shown) [Compound 191] | 171 | – |
| O=C(N[C@H](C(=O)Nc1cc2c(cc1F)C(C(=O)N1CC(F)(F)C1)CC(C1CC(F)(F)C1)O2)C1CCCCCC1)OC[C@@H]1CC1(F)F (stereo partly shown) [Compound 192] | 267 | – |
| CC(C)n1nccc1C(=O)N[C@H](C(=O)Nc1cc2c(cc1F)C(C(=O)N1CC(F)(F)C1)CC(C1CC(F)(F)C1)O2)C1CCCCCC1 (stereo partly shown) [Compound 193] | 39.7 | – |
| CC(C)C1CC(C(=O)N2CC(F)(F)C2)c2ccc(NC(=O)[C@@H](NC(=O)OC3CC(F)(F)C3)C3CCCCCC3)cc2O1 (stereo partly shown) [Compound 194] | 564 | – |
| CC(C)n1nccc1C(=O)N[C@H](C(=O)Nc1ccc2c(c1F)OC(C1CC(F)(F)C1)CC2C(=O)N1CC(F)(F)C1)C1CCCCCC1 (stereo partly shown) [Compound 195] | 131 | – |
| CC(C)n1nccc1C(=O)N[C@H](C(=O)Nc1ccc2c(c1)OCCC2C(=O)N1CC(F)(F)C1)C1CCCCCC1 (stereo partly shown) [Compound 197] | 287 | – |
| CC(C)n1nccc1C(=O)N[C@H](C(=O)Nc1ccc2c(c1)OCC[C@H]2C(=O)N1CC(F)(F)C1)C1CCCCCC1 [Compound 198] | 216 | – |

| SMILES | IC50 (Homo sapiens, HEK-Blue, 20 h) [nM] | IC50 [nM] |
| --- | --- | --- |
| CC(C)n1nccc1C(=O)N[C@H](C(=O)Nc1ccc2c(c1)OC(C)(C)CC2C(=O)N1CC(F)(F)C1)C1CCCCCC1 (stereo partly shown) [Compound 200] | 200 | – |
| CC(C)n1nccc1C(=O)N[C@H](C(=O)Nc1ccc2c(c1)OCCC2CC(=O)N1CC(F)(F)C(F)(F)C1)C1CCCCCC1 (stereo partly shown) [Compound 201] | 443 | – |
| CC(C)n1nccc1C(=O)N[C@H](C(=O)Nc1ccc2c(c1)CCCC2C(=O)N1CC(F)(F)C(F)(F)C1)C1CCCCCC1 (stereo partly shown) [Compound 203] | 141 | – |
| CC(C)n1nccc1C(=O)N[C@H](C(=O)Nc1ccc2c(c1)OCCC2C(=O)N1CCC(F)(F)CC1)C1CCCCCC1 (stereo partly shown) [Compound 206] | 369 | – |
| CC(C)n1nccc1C(=O)N[C@H](C(=O)Nc1ccc2c(c1)SCCC2C(=O)N1CC(F)(F)C(F)(F)C1)C1CCCCCC1 (stereo partly shown) [Compound 207] | 92.9 | – |
| CC(C)n1nccc1C(=O)N[C@H](C(=O)Nc1ccc2c(c1)S(=O)(=O)CCC2C(=O)N1CC(F)(F)C(F)(F)C1)C1CCCCCC1 (stereo partly shown) [Compound 208] | 290 | – |
| CC(C)n1nccc1C(=O)N[C@H](C(=O)Nc1ccc2c(c1)OC(C1CCC1)CC2C(=O)N1CC(F)(F)C(F)(F)C1)C1CCCCCC1 (stereo partly shown) [Compound 210] | 251 | – |
| CC(C)n1nccc1C(=O)N[C@H](C(=O)Nc1ccc2c(c1)OC(C1CCCC1)CC2C(=O)N1CC(F)(F)C(F)(F)C1)C1CCCCCC1 (stereo partly shown) [Compound 211] | 259 | – |
| CC(C)n1nccc1C(=O)N[C@H](C(=O)Nc1ccc2c(c1)OC(C1CCCCC1)CC2C(=O)N1CC(F)(F)C1)C1CCCCCC1 (stereo partly shown) [Compound 212] | 213 | – |
| CC(C)n1nccc1C(=O)N[C@H](C(=O)Nc1ccc2c(c1)OC(C(C)(C)C)CC2C(=O)N1CC(F)(F)C(F)(F)C1)C1CCCCCC1 (stereo partly shown) [Compound 213] | 112 | – |
| Cc1nonc1C(=O)N[C@H](C(=O)Nc1ccc2c(c1)OC(C(C)C)CC2C(=O)N1CC(F)(F)C1)C1CCCCCC1 (stereo partly shown) [Compound 214] | 335 | – |
| CC(C)[C@H]1C[C@@H](C(=O)N2CC(F)(F)C(F)(F)C2)c2ccc(NC(=O)[C@@H](NC(=O)c3ccnn3C(C)C)C3CCCCCC3)cc2O1 [Compound 215] | 40.7 | – |
| CC(C)[C@@H]1C[C@@H](C(=O)N2CC(F)(F)C(F)(F)C2)c2ccc(NC(=O)[C@@H](NC(=O)c3ccnn3C(C)C)C3CCCCCC3)cc2O1 [Compound 217] | 199 | – |
| CC(C)[C@H]1C[C@H](C(=O)N2CC(F)(F)C(F)(F)C2)c2ccc(NC(=O)[C@@H](NC(=O)c3ccnn3C(C)C)C3CCCCCC3)cc2O1 [Compound 218] | 222 | – |
| CC(C)n1nccc1C(=O)N[C@H](C(=O)Nc1ccc2c(c1)CCCC2C(=O)N1CC(F)(F)C1)C1CCCCCC1 (stereo partly shown) [Compound 219] | 276 | – |
| CC(C)CC1CC(C(=O)N2CC(F)(F)C2)c2ccc(NC(=O)[C@@H](NC(=O)c3ccnn3C(C)C)C3CCCCCC3)cc2O1 (stereo partly shown) [Compound 220] | 181 | – |
| CC(C)n1nccc1C(=O)N[C@H](C(=O)Nc1ccc2c(c1)OC1(CCCCC1)CC2C(=O)N1CC(F)(F)C1)C1CCCCCC1 (stereo partly shown) [Compound 221] | 116 | – |
| CC(C)n1nccc1C(=O)N[C@H](C(=O)Nc1ccc2c(c1)OC1(CCC1)CC2C(=O)N1CC(F)(F)C1)C1CCCCCC1 (stereo partly shown) [Compound 222] | 255 | – |
| CC(C)n1nccc1C(=O)N[C@H](C(=O)Nc1ccc2c(c1)OC1(CCCC1)CC2C(=O)N1CC(F)(F)C1)C1CCCCCC1 (stereo partly shown) [Compound 223] | 130 | – |
| CC(C)n1nccc1C(=O)N[C@H](C(=O)Nc1ccc2c(c1)OC1(CCC(C)(C)CC1)CC2C(=O)N1CC(F)(F)C1)C1CCCCCC1 (stereo partly shown) [Compound 224] | 202 | – |
| CC(C)n1nccc1C(=O)N[C@H](C(=O)Nc1ccc2c(c1)O[C@H](C1CC(F)(F)C1)C[C@H]2C(=O)N1CC(F)(F)C1)C1CCCCCC1 [Compound 226] | – | 48.9 |
| CC(C)n1nccc1C(=O)N[C@H](C(=O)Nc1ccc2c(c1)O[C@@H](C1CC(F)(F)C1)C[C@H]2C(=O)N1CC(F)(F)C1)C1CCCCCC1 [Compound 228] | – | 27.5 |
| CC(C)C1CC(C(=O)N2CC(F)(F)C2)c2cc(F)c(NC(=O)[C@@H](NC(=O)c3ccnn3C(C)C)C3CCCCCC3)cc2O1 (stereo partly shown) [Compound 230] | 242 | – |
| CC(C)n1nccc1C(=O)N[C@H](C(=O)Nc1ccc2c(c1)OC(C1CC(F)(F)C1)CC2C(=O)N1CC(C(F)(F)F)C1)C1CCCCCC1 (stereo partly shown) [Compound 231] | 116 | – |

Reference: patent publication US20250011303A1, “SMALL MOLECULE MODULATORS OF IL-17A, METHODS OF MAKING AND METHODS OF USING THEREOF” (ASCLETIS BIOSCIENCE CO., LTD, priority 2023, published 2025)
